Earlier results in patent US20160331796A1, “ENRICHED AMARANTHUS BLITOIDES COMPOSITIONS AND USES THEREOF” (priority 2010, published 2016).

Tested on: prostate cancer cell lines, and primary prostate tumor lines

**Q.** With Vitamin D as the substance, how does the “effect on invasion of prostate cancer cells” value (in vitro) read?
**A.** The value was “decrease invasion”.

**Q.** And the “expression of α6 and β4 integrins” value (integrins associated with increased migration and invasion of prostate cancer cells in vitro)?
**A.** The value was “decreased expression”.

**Q.** What about the “effect on proliferation and differentiation of tumor cell types” value (several tumor cell types, including prostate cancer cell lines and primary prostate tumor lines) of the same substance?
**A.** Its value is “inhibit proliferation and promote differentiation”.
